Patent US10064858B2, “Methods and compositions for treating bacterial infections with iron chelators” (THE UNITED STATES OF AMERICA, AS REPRESENTED BY THE …, priority 2011, dated 2018)
Converted amounts (≈) assume the structure as drawn. Read-outs that look alike come from different tables or passages of the source.

Key:
Format in all cases: cell-based
[1] = test system: A. baumannii strain AB19606; test: Growth (OD600) with chelator, Rifampin or both; conditions: CAMHB
Method: A. baumannii strain AB19606 was grown in CAMHB and challenged with 1.5×MIC compound 4 (Var) or 1.5×MIC Triapine (Tri) with or without 0.75×MIC Rifampin (Rif). Growth was estimated by absorbance at 600 nm (y-axis) at 0 or 24 hours.

[2] = test system: E. coli strain EC35218; test: Growth (OD600) with chelator, Rifampin or both; conditions: CAMHB
Method: E. coli strain EC35218 was grown in CAMHB and challenged with 1.5×MIC compound 4 (Var) or 1.5×MIC Triapine (Tri) with or without 0.75×MIC Rifampin (Rif). Growth was estimated by absorbance at 600 nm (y-axis) at 0 or 24 hours.

[3] = test system: Acinetobacter baumannii; test: MIC, CLSI microdilution (Tables 1 and 6)
Method: (§1) The minimal inhibitory concentration (MIC) of non-toxic iron chelators was determined against standard strains of MDR bacteria and clinical isolates according to the guidelines of the Clinical and Laboratory Standards Institute (CLSI).
(§2) Individual MICs were determined following the microdilution method recommended by CLSI in cationic-adjusted Mueller-Hinton Broth (CAMHB), or M9 media. […] Tests were performed in triplicate. MIC of iron chelators were determined for noscomial ESKAPE pathogens.
(§3) MIC were determined in CAMHB media as described above in Example 8.

[4] = test system: P. aeruginosa; test: MIC, CLSI microdilution (Tables 1 and 6); conditions: Pseudomonas aeruginosa
Method: as §1, §2, §3

[5] = test system: S. aureus; test: MIC, CLSI microdilution (Tables 1 and 6); conditions: Staphylococcus aureus
Method: as §1, §2, §3

[6] = test system: K. pneumonia; test: MIC, CLSI microdilution (Tables 1 and 6); conditions: Klebsiella pneumoniae
Method: as §1, §2, §3

[7] = test system: E. coli; test: MIC, CLSI microdilution (Tables 1 and 6)
Method: as §1, §2, §3

[8] = test system: Acinetobacter baumannii strain 5711 (AB5711); test: Growth (OD600) of AB5711 in low iron media with chelators, with or without FeCl3; conditions: AB5711; low iron media; 100 μM or 200 μM chelator added after 4 hr; 24 hr
Method: Acinetobacter baumannii strain 5711 (AB5711) was grown overnight in LB media and sub-cultured into low iron media. The tested iron chelators were deferoxamine (DFO), deferiprone (DFP), 2,2-dipyridyl, and VK28. The iron chelators were added after 4 hr of growth.
Bacterial growth was estimated by absorption at OD600 every 4 hr for 24 hr. Optical density (OD) at 600 nm (OD600) as measured by a spectrophotometer is a widely used technique known by one skilled in the art to estimate the total number of bacterial cells present in a broth culture (CFU/ml). The exact amount of OD produced by a culture will depend on the concentration of cells present, the species and strain of microbe present, the growth conditions used, and the wavelength of the light being transmitted. Thus, the relationship between OD and cell concentrations will depend on the specific strain and growth conditions studied. For example, the OD600 of 1 for E. coli is about 1×10^9 CFU/ml.
This example provides further evidence that the removal of iron is responsible for bacterial growth inhibition. A. baumannii isolate 5711 was grown in low iron M9 media supplemented with 0 μM, 10 μM, or 100 μM FeCl3 with and without the addition of 200 μM VK28 following 4 hr of growth. Growth was estimated by absorbance at 600 nm every 4 hr for 24 hr.
This example provides further evidence that the removal of iron is responsible for bacterial growth inhibition. A. baumannii isolate 5711 was grown in low iron M9 media supplemented with 0 μM, 10 μM, 100 μM, or 1000 μM FeCl3 with and without the addition of 50 μg/ml of VK28 following 4 hr of growth. Growth was estimated by absorbance at 600 nm after 20 hours.

[9] = test system: Acinetobacter baumannii; test: MIC in RPMI1640 media (Table 2)
Method: (§4) […] […] Tests were performed in triplicate. MIC of iron chelators were determined for noscomial ESKAPE pathogens.
(§5) This media is closer to the iron levels in the human body. MICs are in ug/mL.

[10] = test system: P. aeruginosa; test: MIC in RPMI1640 media (Table 2); conditions: Pseudomonas aeruginosa
Method: as §4, §5

[11] = test system: K. pneumonia; test: MIC in RPMI1640 media (Table 2); conditions: Klebsiella pneumoniae
Method: as §4, §5

[12] = test system: E. coli; test: MIC in RPMI1640 media (Table 2)
Method: as §4, §5

[13] = 1.5×MIC chelator in combination with 0.75×MIC Rifampin
[14] = alone: 1.5×MIC chelator or 0.75×MIC Rifampin
[15] = ATCC17978, ATCC 17978, read-out: MIC of Iron Chelators
[16] = ATCC19606, ATCC 19606, read-out: MIC of Iron Chelators
[17] = ATCC27853, ATCC 27853, read-out: MIC of Iron Chelators
[18] = PAO1, read-out: MIC of Iron Chelators
[19] = ATCC700603, ATCC 700603, read-out: MIC of Iron Chelators
[20] = BAA2146, BAA-2146, read-out: MIC of Iron Chelators
[21] = Escherichia coli, 35718, read-out: MIC of Iron Chelators
[22] = Escherichia coli, ATCC43888, ATCC 43888 (0157:H7), read-out: MIC of Iron Chelators
[23] = ATCC17978, ATCC 17978, Table 1, read-out: MIC of Iron Chelators
[24] = ATCC19606, ATCC 19606, Table 1, read-out: MIC of Iron Chelators
[25] = ATCC27853, ATCC 27853, Table 1, read-out: MIC of Iron Chelators
[26] = PAO1, Table 1, read-out: MIC of Iron Chelators
[27] = ATCC25923, ATCC 25923, Table 1, read-out: MIC of Iron Chelators
[28] = ATCC 43300 (MRSA), Table 1, read-out: MIC of Iron Chelators
[29] = ATCC700603, ATCC 700603, Table 1, read-out: MIC of Iron Chelators
[30] = BAA2146, BAA-2146, Table 1, read-out: MIC of Iron Chelators
[31] = Escherichia coli, ATCC35218, ATCC 35218, Table 1, read-out: MIC of Iron Chelators
[32] = Escherichia coli, ATCC43888, ATCC 43888 (0157:H7), Table 1, read-out: MIC of Iron Chelators

Structure (SMILES)	bacterial growth (OD600 growth curves) [8]	MIC [9, 15] [µg/mL]	MIC [9, 16] [µg/mL]	MIC [10, 17] [µg/mL]	MIC [10, 18] [µg/mL]	MIC [11, 19] [µg/mL]	MIC [11, 20] [µg/mL]	MIC [12, 21] [µg/mL]	MIC [12, 22] [µg/mL]	MIC [3, 23] [µg/mL]	MIC [3, 24] [µg/mL]	MIC [4, 25] [µg/mL]	MIC [4, 26] [µg/mL]	MIC [5, 27] [µg/mL]	MIC [5, 28] [µg/mL]	MIC [6, 29] [µg/mL]	MIC [6, 30] [µg/mL]	MIC [7, 31] [µg/mL]	MIC [7, 32] [µg/mL]	also measured
NC(=S)N/N=C/c1ncccc1N [Triapine, 3-aminopyridine-2-carboxaldehyde thiosemicarbazone]	–	–	–	–	–	–	–	–	–	–	–	–	–	–	–	–	–	–	–	reduction of bacteria (absorbance at 600 nm, 24 hours) [1, 13]: significant reduction in bacteria; reduction of bacteria (absorbance at 600 nm, 24 hours) [1, 14]: no reduction of bacteria; reduction of bacteria (absorbance at 600 nm, 24 hours) [2, 13]: significant reduction in bacteria; reduction of bacteria (absorbance at 600 nm, 24 hours) [2, 14]: did not result in a reduction of bacteria; MIC ([3]; AB19606, CAMHB, read-out: MIC): 32 µg/mL (≈ 164 µM); MIC ([4]; PA27853, CAMHB, read-out: MIC): 250 µg/mL (≈ 1280 µM); MIC ([5]; SA43300, CAMHB, read-out: MIC): 125 µg/mL (≈ 640 µM); MIC ([6]; KP700603, CAMHB, read-out: MIC): 250 µg/mL (≈ 1280 µM); MIC ([7]; EC43888, CAMHB): 125 µg/mL (≈ 640 µM); MIC ([7]; Escherichia coli, EC35218, CAMHB, read-out: MIC): 125 µg/mL (≈ 640 µM)
CC(=O)N(O)CCCCCNC(=O)CCC(=O)N(O)CCCCCNC(=O)CCC(=O)N(O)CCCCCN [DFO, deferoxamine]	little effect	> 500	> 500	> 500	> 500	> 500	> 500	> 500	> 500	> 500	> 500	> 500	> 500	> 500	> 500	> 500	> 500	> 500	> 500	–
c1ccc(-c2ccccn2)nc1 [DIP, 2,2-dipyridyl]	reduced bacterial growth to a significant extent	32	32	250	250	250	125	64	64	64	64	250	250	500	250	500	250	64	64	–
